Experimental data reported in ChEMBL document CHEMBL4507257, “Data for DCP probe ABT-100” (2021).

Assays:
[1] = target: Cyclin-dependent kinase 9 (Homo sapiens) (UniProt P50750); details: Compound concentration 1000.0 nM
[2] = target: Serine/threonine-protein kinase 26 (Homo sapiens) (UniProt Q9P289); details: Compound concentration 1000.0 nM
[3] = target: Serine/threonine-protein kinase 17A (Homo sapiens) (UniProt Q9UEE5); details: Compound concentration 1000.0 nM
[4] = target: Mitogen-activated protein kinase 12 (Homo sapiens) (UniProt P53778); details: Compound concentration 1000.0 nM
[5] = test system: Tyrosine-protein kinase ABL1 (Homo sapiens), P00519 [M351T]; details: Compound concentration 1000.0 nM
[6] = target: Mitogen-activated protein kinase kinase kinase kinase 3 (Homo sapiens) (UniProt Q8IVH8); details: Compound concentration 1000.0 nM
[7] = target: Serine/threonine-protein kinase DCLK3 (Homo sapiens) (UniProt Q9C098); details: Compound concentration 1000.0 nM
[8] = target: Serine/threonine-protein kinase 32A (Homo sapiens) (UniProt Q8WU08); details: Compound concentration 1000.0 nM
[9] = test system: Phosphatidylinositol 4,5-bisphosphate 3-kinase catalytic subunit alpha isoform (Homo sapiens), P42336 [C420R]; details: Compound concentration 1000.0 nM
[10] = target: Serine/threonine-protein kinase Nek11 (Homo sapiens) (UniProt Q8NG66); details: Compound concentration 1000.0 nM
[11] = test system: Proto-oncogene tyrosine-protein kinase receptor Ret (Homo sapiens), P07949 [V804M]; details: Compound concentration 1000.0 nM
[12] = target: Inhibitor of nuclear factor kappa-B kinase subunit alpha (Homo sapiens) (UniProt O15111); details: Compound concentration 1000.0 nM
[13] = target: Microtubule-associated serine/threonine-protein kinase 1 (Homo sapiens) (UniProt Q9Y2H9); details: Compound concentration 1000.0 nM
[14] = target: Cyclin-G-associated kinase (Homo sapiens) (UniProt O14976); details: Compound concentration 1000.0 nM
[15] = target: Ribosomal protein S6 kinase alpha-1 (Homo sapiens) (UniProt Q15418); details: Compound concentration 1000.0 nM
[16] = target: Non-receptor tyrosine-protein kinase TYK2 (Homo sapiens) (UniProt P29597); details: Compound concentration 1000.0 nM
[17] = target: Serine/threonine-protein kinase RIO2 (Homo sapiens) (UniProt Q9BVS4); details: Compound concentration 1000.0 nM
[18] = target: Serine/threonine-protein kinase 17B (Homo sapiens) (UniProt O94768); details: Compound concentration 1000.0 nM
[19] = target: Serine/threonine-protein kinase 36 (Homo sapiens) (UniProt Q9NRP7); details: Compound concentration 1000.0 nM
[20] = test system: Epidermal growth factor receptor (Homo sapiens), P00533 [L858R,T790M]; details: Compound concentration 1000.0 nM
[21] = test system: Proto-oncogene tyrosine-protein kinase receptor Ret (Homo sapiens), P07949 [M918T]; details: Compound concentration 1000.0 nM
[22] = target: Myosin-IIIb (Homo sapiens) (UniProt Q8WXR4); details: Compound concentration 1000.0 nM
[23] = target: Dual specificity mitogen-activated protein kinase kinase 7 (Homo sapiens) (UniProt O14733); details: Compound concentration 1000.0 nM
[24] = target: Serine/threonine-protein kinase N2 (Homo sapiens) (UniProt Q16513); details: Compound concentration 1000.0 nM
[25] = target: NUAK family SNF1-like kinase 2 (Homo sapiens) (UniProt Q9H093); details: Compound concentration 1000.0 nM
[26] = target: Platelet-derived growth factor receptor beta (Homo sapiens) (UniProt P09619); details: Compound concentration 1000.0 nM
[27] = target: 5-hydroxytryptamine receptor 2B (Homo sapiens) (UniProt P41595); details: Compound concentration 10.0 uM
[28] = target: Serine/threonine-protein kinase DCLK1 (Homo sapiens) (UniProt O15075); details: Compound concentration 1000.0 nM
[29] = test system: Receptor-type tyrosine-protein kinase FLT3 (Homo sapiens), P36888 [D835V]; details: Compound concentration 1000.0 nM
[30] = target: 5'-AMP-activated protein kinase catalytic subunit alpha-1 (Homo sapiens) (UniProt Q13131); details: Compound concentration 1000.0 nM
[31] = target: Histamine H3 receptor (Homo sapiens) (UniProt Q9Y5N1); details: Compound concentration 10.0 uM
[32] = target: Cyclin-dependent kinase 4 (Homo sapiens) (UniProt P11802); details: Compound concentration 1000.0 nM
[33] = target: Tyrosine-protein kinase Blk (Homo sapiens) (UniProt P51451); details: Compound concentration 1000.0 nM
[34] = target: Sodium-dependent serotonin transporter (Homo sapiens) (UniProt P31645); details: Compound concentration 10.0 uM
[35] = target: Serine/threonine-protein kinase PLK3 (Homo sapiens) (UniProt Q9H4B4); details: Compound concentration 1000.0 nM
[36] = target: Serine/threonine-protein kinase VRK2 (Homo sapiens) (UniProt Q86Y07); details: Compound concentration 1000.0 nM
[37] = target: Calcium/calmodulin-dependent protein kinase type 1B (Homo sapiens, UniProt Q6P2M8); details: Compound concentration 1000.0 nM
[38] = target: Glycogen synthase kinase-3 alpha (Homo sapiens) (UniProt P49840); details: Compound concentration 1000.0 nM
[39] = test system: Leucine-rich repeat serine/threonine-protein kinase 2 (Homo sapiens), Q5S007 [G2019S]; details: Compound concentration 1000.0 nM
[40] = target: Ephrin type-A receptor 6 (Homo sapiens) (UniProt Q9UF33); details: Compound concentration 1000.0 nM
[41] = target: Activin receptor type-2B (Homo sapiens) (UniProt Q13705); details: Compound concentration 1000.0 nM
[42] = target: Mitogen-activated protein kinase kinase kinase 2 (Homo sapiens) (UniProt Q9Y2U5); details: Compound concentration 1000.0 nM
[43] = target: Serine/threonine-protein kinase ULK2 (Homo sapiens) (UniProt Q8IYT8); details: Compound concentration 1000.0 nM
[44] = target: Serine/threonine-protein kinase NLK (Homo sapiens) (UniProt Q9UBE8); details: Compound concentration 1000.0 nM
[45] = target: Receptor tyrosine-protein kinase erbB-4 (Homo sapiens) (UniProt Q15303); details: Compound concentration 1000.0 nM

Cyclin-dependent kinase 4 (Homo sapiens), sequence (P11802 whole entry): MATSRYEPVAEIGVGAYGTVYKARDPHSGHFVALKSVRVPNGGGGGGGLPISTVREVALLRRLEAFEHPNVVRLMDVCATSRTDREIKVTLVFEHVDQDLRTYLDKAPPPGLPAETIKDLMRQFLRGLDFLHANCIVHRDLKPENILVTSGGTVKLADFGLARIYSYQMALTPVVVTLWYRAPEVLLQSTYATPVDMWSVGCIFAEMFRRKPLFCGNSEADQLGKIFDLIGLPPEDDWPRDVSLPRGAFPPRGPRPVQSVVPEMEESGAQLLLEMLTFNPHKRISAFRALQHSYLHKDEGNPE
Serine/threonine-protein kinase 36 (Homo sapiens), sequence (Q9NRP7 whole entry): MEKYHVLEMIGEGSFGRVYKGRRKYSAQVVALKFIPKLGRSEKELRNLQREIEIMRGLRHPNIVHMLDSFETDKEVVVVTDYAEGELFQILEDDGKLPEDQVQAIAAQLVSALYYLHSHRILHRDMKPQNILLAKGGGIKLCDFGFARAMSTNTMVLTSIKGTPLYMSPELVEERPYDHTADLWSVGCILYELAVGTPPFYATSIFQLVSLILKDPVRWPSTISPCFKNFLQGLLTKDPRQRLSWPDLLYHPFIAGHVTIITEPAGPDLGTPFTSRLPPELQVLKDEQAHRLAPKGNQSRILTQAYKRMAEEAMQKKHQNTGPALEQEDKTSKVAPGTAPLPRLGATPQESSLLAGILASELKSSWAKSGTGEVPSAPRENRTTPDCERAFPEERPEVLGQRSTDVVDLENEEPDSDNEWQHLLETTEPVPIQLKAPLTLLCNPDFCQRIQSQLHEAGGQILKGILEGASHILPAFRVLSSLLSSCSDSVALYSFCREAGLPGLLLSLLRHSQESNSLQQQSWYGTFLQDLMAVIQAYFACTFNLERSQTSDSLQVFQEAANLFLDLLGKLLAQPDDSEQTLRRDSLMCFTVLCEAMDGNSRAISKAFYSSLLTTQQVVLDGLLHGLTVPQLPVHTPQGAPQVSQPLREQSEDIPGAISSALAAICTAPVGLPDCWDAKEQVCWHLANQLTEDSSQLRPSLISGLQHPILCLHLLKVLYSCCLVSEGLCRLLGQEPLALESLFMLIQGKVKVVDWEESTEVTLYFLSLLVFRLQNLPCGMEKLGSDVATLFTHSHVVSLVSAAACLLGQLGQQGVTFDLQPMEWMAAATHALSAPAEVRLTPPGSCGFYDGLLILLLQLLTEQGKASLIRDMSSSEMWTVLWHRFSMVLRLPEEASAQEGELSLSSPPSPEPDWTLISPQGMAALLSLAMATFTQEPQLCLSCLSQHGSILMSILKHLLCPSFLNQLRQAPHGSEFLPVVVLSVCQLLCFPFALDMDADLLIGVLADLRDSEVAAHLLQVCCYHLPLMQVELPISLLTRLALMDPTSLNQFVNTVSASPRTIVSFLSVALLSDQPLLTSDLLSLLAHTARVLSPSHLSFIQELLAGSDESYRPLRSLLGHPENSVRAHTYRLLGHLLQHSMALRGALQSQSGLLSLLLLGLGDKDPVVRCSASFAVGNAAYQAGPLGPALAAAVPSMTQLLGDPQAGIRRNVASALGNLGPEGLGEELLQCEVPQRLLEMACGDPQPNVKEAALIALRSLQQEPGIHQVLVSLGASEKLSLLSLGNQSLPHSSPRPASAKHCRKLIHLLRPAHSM
Histamine H3 receptor (Homo sapiens), sequence (Q9Y5N1 whole entry): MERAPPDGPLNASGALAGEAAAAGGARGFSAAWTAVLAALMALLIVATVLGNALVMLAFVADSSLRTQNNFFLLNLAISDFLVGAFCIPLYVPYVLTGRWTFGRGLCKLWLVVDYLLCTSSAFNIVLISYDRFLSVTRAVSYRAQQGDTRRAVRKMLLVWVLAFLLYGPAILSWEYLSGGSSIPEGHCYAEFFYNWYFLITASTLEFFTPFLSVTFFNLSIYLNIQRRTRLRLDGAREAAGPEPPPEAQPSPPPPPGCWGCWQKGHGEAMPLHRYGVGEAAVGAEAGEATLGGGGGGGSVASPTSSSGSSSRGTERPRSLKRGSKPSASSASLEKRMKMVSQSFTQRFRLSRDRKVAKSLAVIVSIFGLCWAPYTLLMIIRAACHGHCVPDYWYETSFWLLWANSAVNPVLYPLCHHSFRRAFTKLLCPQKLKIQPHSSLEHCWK
5'-AMP-activated protein kinase catalytic subunit alpha-1 (Homo sapiens), sequence (Q13131 whole entry, looked up): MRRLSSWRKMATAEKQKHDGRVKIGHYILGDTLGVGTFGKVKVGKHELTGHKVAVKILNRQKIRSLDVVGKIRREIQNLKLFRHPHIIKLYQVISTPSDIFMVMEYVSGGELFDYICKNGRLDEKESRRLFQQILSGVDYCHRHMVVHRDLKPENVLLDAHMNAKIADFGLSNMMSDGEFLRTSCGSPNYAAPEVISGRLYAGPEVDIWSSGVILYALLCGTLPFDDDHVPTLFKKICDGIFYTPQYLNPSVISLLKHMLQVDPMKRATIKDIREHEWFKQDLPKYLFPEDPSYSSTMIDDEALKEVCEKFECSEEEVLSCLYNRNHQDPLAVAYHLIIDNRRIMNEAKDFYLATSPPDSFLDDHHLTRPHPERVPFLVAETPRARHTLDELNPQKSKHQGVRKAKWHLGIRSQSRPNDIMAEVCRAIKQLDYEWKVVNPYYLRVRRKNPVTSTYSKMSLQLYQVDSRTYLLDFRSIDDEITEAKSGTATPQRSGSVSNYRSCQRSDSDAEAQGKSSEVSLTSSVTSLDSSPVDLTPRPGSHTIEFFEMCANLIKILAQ
Calcium/calmodulin-dependent protein kinase type 1B, sequence (Q6P2M8 whole entry): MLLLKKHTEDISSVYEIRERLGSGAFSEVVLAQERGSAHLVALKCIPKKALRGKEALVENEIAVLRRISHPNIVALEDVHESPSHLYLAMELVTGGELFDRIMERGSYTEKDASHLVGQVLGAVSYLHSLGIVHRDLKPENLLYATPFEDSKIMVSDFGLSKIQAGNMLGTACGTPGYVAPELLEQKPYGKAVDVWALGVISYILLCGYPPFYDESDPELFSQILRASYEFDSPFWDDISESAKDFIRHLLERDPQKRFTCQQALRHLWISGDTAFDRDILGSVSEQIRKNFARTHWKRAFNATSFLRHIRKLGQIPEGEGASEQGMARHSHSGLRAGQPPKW
Glycogen synthase kinase-3 alpha (Homo sapiens), sequence (P49840 2-483 limits assumed): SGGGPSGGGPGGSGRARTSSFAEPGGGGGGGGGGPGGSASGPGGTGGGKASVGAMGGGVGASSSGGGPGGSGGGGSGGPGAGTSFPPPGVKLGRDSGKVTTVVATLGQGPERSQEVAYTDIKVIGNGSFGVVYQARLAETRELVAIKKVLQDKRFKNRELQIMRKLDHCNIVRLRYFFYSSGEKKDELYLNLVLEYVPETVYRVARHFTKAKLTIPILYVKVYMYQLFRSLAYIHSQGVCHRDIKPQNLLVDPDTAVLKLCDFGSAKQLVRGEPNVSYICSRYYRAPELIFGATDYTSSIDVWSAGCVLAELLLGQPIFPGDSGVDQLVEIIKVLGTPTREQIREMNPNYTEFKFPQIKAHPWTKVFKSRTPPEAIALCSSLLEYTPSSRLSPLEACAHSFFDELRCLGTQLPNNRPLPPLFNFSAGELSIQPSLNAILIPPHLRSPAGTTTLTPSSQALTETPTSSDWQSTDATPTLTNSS
Serine/threonine-protein kinase PLK3 (Homo sapiens), sequence (Q9H4B4 whole entry, looked up): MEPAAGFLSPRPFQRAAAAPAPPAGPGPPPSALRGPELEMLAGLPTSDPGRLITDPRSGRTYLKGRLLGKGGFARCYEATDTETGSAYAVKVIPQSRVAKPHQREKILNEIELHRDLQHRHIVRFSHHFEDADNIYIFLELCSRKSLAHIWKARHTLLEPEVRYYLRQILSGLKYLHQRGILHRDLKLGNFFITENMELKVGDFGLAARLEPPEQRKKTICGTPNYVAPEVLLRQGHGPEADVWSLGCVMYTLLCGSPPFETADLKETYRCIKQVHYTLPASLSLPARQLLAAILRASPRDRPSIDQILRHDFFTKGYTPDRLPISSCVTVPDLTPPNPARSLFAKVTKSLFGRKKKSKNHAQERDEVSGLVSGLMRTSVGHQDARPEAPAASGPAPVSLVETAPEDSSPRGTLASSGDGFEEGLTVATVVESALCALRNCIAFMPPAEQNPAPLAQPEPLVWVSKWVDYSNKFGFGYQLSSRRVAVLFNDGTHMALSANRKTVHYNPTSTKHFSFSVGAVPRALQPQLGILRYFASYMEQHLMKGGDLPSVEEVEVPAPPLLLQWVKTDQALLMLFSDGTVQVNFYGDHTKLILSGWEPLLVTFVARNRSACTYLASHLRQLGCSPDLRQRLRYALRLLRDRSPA
Serine/threonine-protein kinase NLK (Homo sapiens), sequence (Q9UBE8 whole entry): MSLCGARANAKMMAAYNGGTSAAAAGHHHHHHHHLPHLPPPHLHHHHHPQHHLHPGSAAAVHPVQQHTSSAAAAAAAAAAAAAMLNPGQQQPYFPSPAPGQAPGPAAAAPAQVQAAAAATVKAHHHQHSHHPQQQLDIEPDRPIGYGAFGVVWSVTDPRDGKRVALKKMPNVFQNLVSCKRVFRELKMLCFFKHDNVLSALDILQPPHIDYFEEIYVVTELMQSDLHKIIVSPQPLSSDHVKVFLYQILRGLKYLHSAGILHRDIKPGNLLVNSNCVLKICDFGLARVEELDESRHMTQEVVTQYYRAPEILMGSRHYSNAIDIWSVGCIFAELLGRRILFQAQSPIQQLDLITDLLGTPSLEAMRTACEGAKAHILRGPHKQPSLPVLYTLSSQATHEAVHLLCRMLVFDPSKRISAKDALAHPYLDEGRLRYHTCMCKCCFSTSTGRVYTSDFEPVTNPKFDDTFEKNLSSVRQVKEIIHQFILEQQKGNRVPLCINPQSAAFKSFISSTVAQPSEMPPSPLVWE
Cyclin-dependent kinase 9 (Homo sapiens), sequence (P50750 whole entry): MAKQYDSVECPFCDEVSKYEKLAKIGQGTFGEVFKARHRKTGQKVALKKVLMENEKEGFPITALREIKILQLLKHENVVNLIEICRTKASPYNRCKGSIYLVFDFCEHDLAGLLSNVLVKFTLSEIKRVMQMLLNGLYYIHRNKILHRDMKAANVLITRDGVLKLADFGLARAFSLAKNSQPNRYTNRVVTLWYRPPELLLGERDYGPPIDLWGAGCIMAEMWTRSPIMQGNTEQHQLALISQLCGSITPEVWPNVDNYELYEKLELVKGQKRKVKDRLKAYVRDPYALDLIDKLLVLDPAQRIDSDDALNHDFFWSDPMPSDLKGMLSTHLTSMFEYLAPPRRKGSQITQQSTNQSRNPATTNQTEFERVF

Question: How did the residual activity [1] turn out when `Cn1cncc1[C@](O)(COc1ccc(C#N)cc1-c1ccc(OC(F)(F)F)cc1)c1ccc(C#N)cc1` [ABT-100] was run?
Answer: 100%

Question: What about the residual activity [2] of the same compound?
Answer: 100%

Question: What about the residual activity [3] of the same compound?
Answer: 100%

Question: And the residual activity [4]?
Answer: 100%

Question: And the residual activity [5]?
Answer: 100%

Question: And the residual activity [6]?
Answer: 100%

Question: And the residual activity [7]?
Answer: 99%

Question: What about the residual activity [8] of the same compound?
Answer: 100%

Question: And the residual activity [9]?
Answer: 100%

Question: And the residual activity [10]?
Answer: 100%

Question: What about the residual activity [11] of the same compound?
Answer: 99%

Question: What about the residual activity [12] of the same compound?
Answer: 86%

Question: What about the residual activity [13] of the same compound?
Answer: 92%

Question: And the residual activity [14]?
Answer: 97%

Question: What about the residual activity [15] of the same compound?
Answer: 89%

Question: And the residual activity [16]?
Answer: 56%

Question: What about the residual activity [17] of the same compound?
Answer: 83%

Question: What about the residual activity [18] of the same compound?
Answer: 64%

Question: And the residual activity [19]?
Answer: 80%

Question: And the residual activity [20]?
Answer: 100%

Question: What about the residual activity [21] of the same compound?
Answer: 95%

Question: And the residual activity [22]?
Answer: 71%

Question: What about the residual activity [23] of the same compound?
Answer: 100%

Question: And the residual activity [24]?
Answer: 100%

Question: What about the residual activity [25] of the same compound?
Answer: 100%

Question: And the residual activity [26]?
Answer: 100%

Question: And the inhibition [27]?
Answer: -5.75%

Question: What about the residual activity [28] of the same compound?
Answer: 94%

Question: What about the residual activity [29] of the same compound?
Answer: 100%

Question: What about the residual activity [30] of the same compound?
Answer: 99%

Question: What about the inhibition [31] of the same compound?
Answer: 5.92%

Question: What about the residual activity [32] of the same compound?
Answer: 100%

Question: What about the residual activity [33] of the same compound?
Answer: 90%

Question: And the inhibition [34]?
Answer: 1.25%

Question: And the residual activity [35]?
Answer: 89%

Question: What about the residual activity [36] of the same compound?
Answer: 70%

Question: And the residual activity [37]?
Answer: 60%

Question: What about the residual activity [38] of the same compound?
Answer: 62%

Question: What about the residual activity [39] of the same compound?
Answer: 92%

Question: What about the residual activity [40] of the same compound?
Answer: 100%

Question: What about the residual activity [41] of the same compound?
Answer: 100%

Question: What about the residual activity [42] of the same compound?
Answer: 77%

Question: What about the residual activity [43] of the same compound?
Answer: 100%

Question: What about the residual activity [44] of the same compound?
Answer: 89%

Question: And the residual activity [45]?
Answer: 81%

Question: How did the residual activity [1] turn out when `Cn1cncc1[C@@](O)(COc1ccc(C#N)cc1-c1ccc(OC(F)(F)F)cc1)c1ccc(C#N)cc1` [A-108] was run?
Answer: 100%

Question: And the residual activity [2]?
Answer: 99%

Question: What about the residual activity [3] of the same compound?
Answer: 100%

Question: What about the residual activity [4] of the same compound?
Answer: 100%

Question: And the residual activity [5]?
Answer: 6.2%

Question: And the residual activity [6]?
Answer: 100%

Question: And the residual activity [7]?
Answer: 94%

Question: What about the residual activity [8] of the same compound?
Answer: 75%

Question: What about the residual activity [9] of the same compound?
Answer: 90%

Question: What about the residual activity [10] of the same compound?
Answer: 100%

Question: What about the residual activity [11] of the same compound?
Answer: 98%

Question: And the residual activity [12]?
Answer: 100%

Question: What about the residual activity [13] of the same compound?
Answer: 100%

Question: And the residual activity [14]?
Answer: 91%

Question: And the residual activity [15]?
Answer: 72%

Question: What about the residual activity [16] of the same compound?
Answer: 92%

Question: What about the residual activity [17] of the same compound?
Answer: 100%

Question: What about the residual activity [18] of the same compound?
Answer: 84%

Question: And the residual activity [19]?
Answer: 93%

Question: And the residual activity [20]?
Answer: 96%

Question: What about the residual activity [21] of the same compound?
Answer: 98%

Question: And the residual activity [22]?
Answer: 55%

Question: And the residual activity [23]?
Answer: 96%

Question: And the residual activity [24]?
Answer: 85%

Question: And the residual activity [25]?
Answer: 100%

Question: What about the residual activity [26] of the same compound?
Answer: 97%

Question: And the inhibition [27]?
Answer: 18.6%

Question: And the residual activity [28]?
Answer: 87%

Question: And the residual activity [29]?
Answer: 89%

Question: And the residual activity [30]?
Answer: 100%

Question: What about the inhibition [31] of the same compound?
Answer: 17.8%

Question: And the residual activity [32]?
Answer: 92%

Question: What about the residual activity [33] of the same compound?
Answer: 71%

Question: And the inhibition [34]?
Answer: -7.91%

Question: And the residual activity [35]?
Answer: 88%

Question: What about the residual activity [36] of the same compound?
Answer: 95%

Question: And the residual activity [37]?
Answer: 100%

Question: And the residual activity [38]?
Answer: 100%

Question: What about the residual activity [39] of the same compound?
Answer: 91%

Question: And the residual activity [40]?
Answer: 3%

Question: What about the residual activity [41] of the same compound?
Answer: 100%

Question: What about the residual activity [42] of the same compound?
Answer: 100%

Question: What about the residual activity [43] of the same compound?
Answer: 100%

Question: And the residual activity [44]?
Answer: 100%

Question: And the residual activity [45]?
Answer: 100%
